Values of other authors, collected in patent US20070287651A1, “Bleaching compositions” (The Procter & Gamble Company, priority 2006, published 2007).

Settings: deionized water at 25° C. (definition)

solubility in water: lower than 1 gram per liter
SMILES: c1ccc2oc(-c3ccc(-c4nc5ccccc5o4)s3)nc2c1 [Tinopal SOP, benzoxazole,2,2′-(thiophenaldyl)bis]
